Patent US10294234B2, “HIV inhibitor compounds” (priority 2017, dated 2019)
Where two headings read alike, the source gives them in different places.

Legend:
[1] = test system: HIV-1 (IIIB) in MT-4 cells; test: MT-4 HIV assay; assay type: cell-based; details: Human immunodeficiency virus 1, MT4, 120 h
How it was run: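 MT-4 cells infected with HIV-1 IIIB (1:250 stock dilution) were incubated with 1:3 serially diluted compounds in RPMI with 10% FBS for 5 days at 37 °C. Cell Titer Glo luminescence was the readout. Plates included mock-infected wells, no-drug wells and 5 uM AZT controls.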

[2] = How it was run: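 Dog, rat and human liver microsomes (0.5 mg/mL) with NADPH-regenerating cofactor; test compound 1 uM, duplicates. Timepoints 2, 12, 25, 45, 65 min; protein removed by centrifugation, supernatant analysed by LC/MS/MS. Clint from t1/2.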
[3] = HIV-1 (IIIB), MT-4 cells, 5 days, Cell Titer Glo, read-out: EC50
[4] = human liver microsomes 0.5 mg/mL, 1 uM compound, NADPH
[5] = rat liver microsomes 0.5 mg/mL, 1 uM compound, NADPH

Human Pred Cl. [2, 4] [L/H/kg] | Rat. Pred. Cl. [2, 5] [L/H/kg] | Structure (SMILES) | EC50 [1, 3] [nM] | Human Pred Cl. ([2]; human, microsomes) [L/H/kg] | Rat. Pred. Cl. ([2]; rat, microsomes) [L/H/kg] | EC50 [1] [nM] | Dog. Pred. Cl. ([2]; dog, microsomes) [L/H/kg]
 |  | COC(=O)N[C@H](C(=O)N[C@@H](Cc1ccc(C#Cc2ccc(N3CC4CCC(C3)N4C3COC3)nc2)cc1)[C@@H](O)CN(Cc1ccc(-c2ccn(C(F)F)n2)cc1)NC(=O)[C@@H](NC(=O)OC)C(C)(C)C(F)(F)F)C(C)(C)C(F)(F)F [Example 158, Methyl ((5S,8S,9S,14S)-11-(4-(1-(difluoromethyl)-1H-pyrazol-3-yl)benzyl)-16,16,16-trifluoro-9-hydroxy-15,15-dimethyl-8-(4-((6-(8-(oxetan-3-yl)-3,8-diazabicyclo[3.2.1]octan-3-yl)pyridin-3-yl)ethynyl)benzyl)-3,6,13-trioxo-5-(1,1,1-trifluoro-2-methylpropan-2-yl)-2-oxa-4,7,11,12-tetraazahexadecan-14-yl)carbamate] | 4.37 | <0.11 | 0.22 |  | 
 |  | COC(=O)N[C@H](C(=O)N[C@@H](Cc1ccc(C#Cc2ccc(N3CC4CC(C3)N4C3COC3)nc2)cc1)[C@@H](O)CN(Cc1c(F)cc(-c2ccccn2)cc1F)NC(=O)[C@@H](NC(=O)OC)C(C)(C)C(F)(F)F)C(C)(C)C(F)(F)F [Example 175, Methyl ((5S,8S,9S,14S)-11-(2,6-difluoro-4-(pyridin-2-yl)benzyl)-16,16,16-trifluoro-9-hydroxy-15,15-dimethyl-8-(4-((6-(6-(oxetan-3-yl)-3,6-diazabicyclo[3.1.1]heptan-3-yl)pyridin-3-yl)ethynyl)benzyl)-3,6,13-trioxo-5-(1,1,1-trifluoro-2-methylpropan-2-yl)-2-oxa-4,7,11,12-tetraazahexadecan-14-yl)carbamate] | 2.17 | 0.67 | 0.7 |  | 
 |  | COC(=O)N[C@H](C(=O)N[C@@H](Cc1ccc(C#Cc2ccc(N3CC4CCC(C3)N4C3COC3)nc2)cc1)[C@@H](O)CN(Cc1c(F)cc(C2CCOCC2)cc1F)NC(=O)[C@@H](NC(=O)OC)C(C)(C)C(F)(F)F)C(C)(C)C(F)(F)F [Example 82, Methyl ((5S,8S,9S,14S)-11-(2,6-difluoro-4-(tetrahydro-2H-pyran-4-yl)benzyl)-16,16,16-trifluoro-9-hydroxy-15,15-dimethyl-8-(4-((6-(8-(oxetan-3-yl)-3,8-diazabicyclo[3.2.1]octan-3-yl)pyridin-3-yl)ethynyl)benzyl)-3,6,13-trioxo-5-(1,1,1-trifluoro-2-methylpropan-2-yl)-2-oxa-4,7,11,12-tetraazahexadecan-14-yl)carbamate] | 4.4 | 0.82 | 0.44 |  | 
<0.11 | <0.18 | COC(=O)N[C@H](C(=O)N[C@@H](Cc1ccc(C#Cc2ccc(-c3cn4c(n3)CN(C)C(=O)C4)cc2)cc1)[C@@H](O)CN(Cc1c(F)cc(-c2ccn(C(F)F)n2)cc1F)NC(=O)[C@@H](NC(=O)OC)C(C)(C)C(F)(F)F)C(C)(C)C(F)(F)F [Example 134, Methyl ((5S,8S,9S,14S)-11-(4-(1-(difluoromethyl)-1H-pyrazol-3-yl)-2,6-difluorobenzyl)-16,16,16-trifluoro-9-hydroxy-15,15-dimethyl-8-(4-((4-(7-methyl-6-oxo-5,6,7,8-tetrahydroimidazo[1,2-a]pyrazin-2-yl)phenyl)ethynyl)benzyl)-3,6,13-trioxo-5-(1,1,1-trifluoro-2-methylpropan-2-yl)-2-oxa-4,7,11,12-tetraazahexadecan-14-yl)carbamate] | 5.52 |  |  |  | 
 |  | CCC(=O)N[C@H](C(=O)NN(Cc1c(F)cc(-c2ccn(C(F)F)n2)cc1F)C[C@H](O)[C@H](Cc1ccc(C#Cc2ccc(N3CC4CCC(C3)N4C3COC3)nc2)cc1)NC(=O)[C@@H](NC(=O)OC)C(C)(C)C(F)(F)F)C(C)(C)C [Example 185, Methyl ((2S)-1-(((2S,3S)-4-(1-(4-(1-(difluoromethyl)-1H-pyrazol-3-yl)-2,6-difluorobenzyl)-2-((S)-3,3-dimethyl-2-propionamidobutanoyl)hydrazinyl)-3-hydroxy-1-(4-((6-(8-(oxetan-3-yl)-3,8-diazabicyclo[3.2.1]octan-3-yl)pyridin-3-yl)ethynyl)phenyl)butan-2-yl)amino)-4,4,4-trifluoro-3,3-dimethyl-1-oxobutan-2-yl)carbamate] | 2.58 | 0.32 | 0.31 |  | 
<0.11 | 0.92 | COC(=O)N[C@H](C(=O)N[C@@H](Cc1ccc(C#Cc2ccc(N3C[C@H]4C[C@@H]3CN4C3COC3)nc2)cc1)[C@@H](O)CN(Cc1c(F)cc(-c2ccn(C3CC3)n2)cc1F)NC(=O)[C@@H](NC(=O)OC)C(C)(C)C(F)(F)F)C(C)(C)C(F)(F)F [Example 45, Methyl ((5S,8S,9S,14S)-11-(4-(1-cyclopropyl-1H-pyrazol-3-yl)-2,6-difluorobenzyl)-16,16,16-trifluoro-9-hydroxy-15,15-dimethyl-8-(4-((6-((1R,4R)-5-(oxetan-3-yl)-2,5-diazabicyclo[2.2.1]heptan-2-yl)pyridin-3-yl)ethynyl)benzyl)-3,6,13-trioxo-5-(1,1,1-trifluoro-2-methylpropan-2-yl)-2-oxa-4,7,11,12-tetraazahexadecan-14-yl)carbamate] |  |  |  | 2.56 | 
 |  | COC(=O)N[C@H](C(=O)N[C@@H](Cc1ccc(C#Cc2ccc(N3CC4COCC(C3)N4C3COC3)nc2)cc1)[C@@H](O)CN(Cc1c(F)cc(-c2ccccn2)cc1F)NC(=O)[C@@H](NC(=O)OC)C(C)(C)C(F)(F)F)C(C)(C)C(F)(F)F [Example 179, Methyl ((5S,8S,9S,14S)-11-(2,6-difluoro-4-(pyridin-2-yl)benzyl)-16,16,16-trifluoro-9-hydroxy-15,15-dimethyl-8-(4-((6-(9-(oxetan-3-yl)-3-oxa-7,9-diazabicyclo[3.3.1]nonan-7-yl)pyridin-3-yl)ethynyl)benzyl)-3,6,13-trioxo-5-(1,1,1-trifluoro-2-methylpropan-2-yl)-2-oxa-4,7,11,12-tetraazahexadecan-14-yl)carbamate] | 3.55 | 0.33 | 0.27 |  | 
 |  | COC(=O)N[C@H](C(=O)N[C@@H](Cc1ccc(C#Cc2ccc(N3CC4CCC(C3)N4C3COC3)nc2)cc1)[C@@H](O)CN(Cc1c(F)cc(-c2ccc(N3CC4CCC(C3)N4C3COC3)nc2)cc1F)NC(=O)[C@@H](NC(=O)OC)C(C)(C)C(F)(F)F)C(C)(C)C(F)(F)F [Example 147, Methyl ((5S,8S,9S,14S)-11-(2,6-difluoro-4-(6-(8-(oxetan-3-yl)-3,8-diazabicyclo[3.2.1]octan-3-yl)pyridin-3-yl)benzyl)-16,16,16-trifluoro-9-hydroxy-15,15-dimethyl-8-(4-((6-(8-(oxetan-3-yl)-3,8-diazabicyclo [3.2.1]octan-3-yl)pyridin-3-yl)ethynyl)benzyl)-3,6,13-trioxo-5-(1,1,1-trifluoro-2-methylpropan-2-yl)-2-oxa-4,7,11,12-tetraazahexadecan-14-yl)carbamate] | 6.79 | <0.11 |  |  | 
 |  | COC(=O)N[C@H](C(=O)N[C@@H](Cc1ccc(C#Cc2ccc(N3CC4COCC(C3)N4C)nc2)cc1)[C@@H](O)CN(Cc1c(F)cc(-c2ccn(C3CC3)n2)cc1F)NC(=O)[C@@H](NC(=O)OC)C(C)(C)C(F)(F)F)C(C)(C)C(F)(F)F [Example 35] | 3.54 | <0.11 | 2.1 |  | 1.74
